According to patent publication US9770445B2, “Sulfoximine substituted 5-fluoro-N-(pyridin-2-yl)pyridin-2-amine derivatives and their use as CDK9 kinase inhibitors” (BAYER PHARMA AKTIENGESELLSCHAFT, priority 2013, dated 2017):

Columns and labels:
CDK9/CycT1 = target: T1, CDK9/CycT1 (Homo sapiens, UniProt P50750); experiment: CDK9/CycT1 kinase assay (Method 1a, TR-FRET); format: biochemical; settings: for IC50: Method 1a, 10 μM ATP; for Selectivity CDK9 over CDK2: IC50 (CDK2)/IC50 (CDK9): ratio of Method 2 to Method 1a values
T1 construct: Recombinant full-length His-tagged human CDK9 and CycT1; His; purchased Invitrogen PV4131; host or cells: insect cells
From the text: 1a. CDK9/CyeT1 Kinase Assay:
CDK9/CycT1-inhibitory activity of compounds of the present invention was quantified employing the CDK9/CycT1 TR-FRET assay as described in the following paragraphs:
Recombinant full-length His-tagged human CDK9 and CycT1, expressed in insect cells and purified by Ni-NTA affinity chromatography, were purchased from Invitrogen (Cat. No PV4131). As substrate for the kinase reaction biotinylated peptide biotin-Ttds-YISPLKSPYKISEG (C-terminus in amid form) was used which can be purchased e.g. form the company JERINI Peptide Technologies (Berlin, Germany). For the assay 50 nl of a 100 fold concentrated solution of the test compound in DMSO was pipetted into a black low volume 384 well microtiter plate (Greiner Bio-One, Frickenhausen, Germany), 2 μl of a solution of CDK9/CycT1 in aqueous assay buffer [50 mM Tris/HCl pH 8.0, 10 mM MgCl2, 1.0 mM dithiothreitol, 0.1 mM sodium ortho-vanadate, 0.01% (v/v) Nonidet-P40 (Sigma)] were added and the mixture was incubated for 15 min at 22° C. to allow pre-binding of the test compounds to the enzyme before the start of the kinase reaction. Then the kinase reaction was started by the addition of 3 μl of a solution of adenosine-tri-phosphate (ATP, 16.7 μM=>final conc. in the 5 μl assay volume is 10 μM) and substrate (1.67 μM=>final conc. in the 5 μl assay volume is 1 μM) in assay buffer and the resulting mixture was incubated for a reaction time of 25 min at 22° C. The concentration of CDK9/CycT1 was adjusted depending of the activity of the enzyme lot and was chosen appropriate to have the assay in the linear range, typical concentrations were in the range of 1 μg/mL. The reaction was stopped by the addition of 5 μl of a solution of TR-FRET detection reagents (0.2 μM streptavidine-XL665 [Cisbio Bioassays, Codolet, France] and 1 nM anti-RB(pSer807/pSer811)-antibody from BD Pharmingen [#558389] and 1.2 nM LANCE EU-W1024 labeled anti-mouse IgG antibody [Perkin-Elmer, product no. AD0077]) in an aqueous EDTA-solution (100 mM EDTA, 0.2% (w/v) bovine serum albumin in 100 mM HEPES/NaOH pH 7.0).
The resulting mixture was incubated 1 h at 22° C. to allow the formation of complex between the phosphorylated biotinylated peptide and the detection reagents. Subsequently the amount of phosphorylated substrate was evaluated by measurement of the resonance energy transfer from the Eu-chelate to the streptavidine-XL. Therefore, the fluorescence emissions at 620 nm and 665 nm after excitation at 350 nm was measured in a HTRF reader, e.g. a Rubystar (BMG Labtechnologies, Offenburg, Germany) or a Viewlux (Perkin-Elmer). The ratio of the emissions at 665 nm and at […] was taken as the measure for the amount of phosphorylated substrate. The data were normalised (enzyme reaction without inhibitor=0% inhibition, all other assay components but no enzyme=100% inhibition).

[1] = test system: HeLa, human cervical tumour cells; experiment: Proliferation assay, HeLa (crystal violet); format: cell-based; settings: 96 h, 4 days, read-out: Inhibition of HeLa cell proliferation
Experimental: (§1) Cultivated tumour cells (HeLa, human cervical tumour cells, ATCC CCL-2; NCI-H460, human non-small cell lung carcinoma cells, ATCC HTB-177; A2780, human ovarian carcinoma cells, ECACC #93112519; DU 145, hormone-independent human prostate carcinoma cells, ATCC HTB-81; HeLa-MaTu-ADR, multidrug-resistant human cervical carcinoma cells, EPO-GmbH Berlin; Caco-2, human colorectal carcinoma cells, ATCC HTB-37; B16F10, mouse melanoma cells, ATCC CRL-6475) were plated at a density of 5,000 cells/well (DU145, HeLa-MaTu-ADR), 3,000 cells/well (NCI-H460, HeLa), 2,500 cells/well (A2780), 1,500 cells/well (Caco-2), or 1,000 cells/well (B16F10) in a 96-well multititer plate in 200 μL of their respective growth medium supplemented 10% fetal calf serum. After 24 hours, the cells of one plate (zero-point plate) were stained with crystal violet (see below), while the medium of the other plates was replaced by fresh culture medium (200 μl), to which the test substances were added in various concentrations (0 μM, as well as in the range of 0.001-10 μM; the final concentration of the solvent dimethyl sulfoxide was 0.5%). The cells were incubated for 4 days in the presence of test substances. Cell proliferation was determined by staining the cells with crystal violet: the cells were fixed by adding 20 μl/measuring point of an 11% glutaric aldehyde solution for 15 minutes at room temperature. After three washing cycles of the fixed cells with water, the plates were dried at room temperature. The cells were stained by adding 100 μl/measuring point of a 0.1% crystal violet solution (pH 3.0). After three washing cycles of the stained cells with water, the plates were dried at room temperature. The dye was dissolved by adding 100 μl/measuring point of a 10% acetic acid solution. The extinction was determined by photometry at a wavelength of 595 nm. The change of cell number, in percent, was calculated by normalization of the measured values to the extinction values of the zero-point plate (=0%) and the extinction of the untreated (0 μm) cells (=100%). The IC50 values (inhibitory concentration at 50% of maximal effect) were determined by means of a 4 parameter fit.

[2] = test system: HeLa-MaTu-ADR, multidrug-resistant human cervical carcinoma cells; experiment: Proliferation assay, HeLa-MaTu-ADR (crystal violet); format: cell-based; settings: 96 h, 4 days, read-out: Inhibition of HeLa-MaTu-ADR cell proliferation
Experimental: as §1

[3] = test system: NCI-H460, human non-small cell lung carcinoma cells; experiment: Proliferation assay, NCI-H460 (crystal violet); format: cell-based; settings: 96 h, NCI-H460, 4 days, read-out: Inhibition of NCI-H460 cell proliferation
Experimental: as §1

[4] = test system: DU 145, hormone-independent human prostate carcinoma cells; experiment: Proliferation assay, DU145 (crystal violet); format: cell-based; settings: DU-145, 96 h, DU145, 4 days, read-out: Inhibition of DU145 cell proliferation
Experimental: as §1

[5] = test system: Caco-2, human colorectal carcinoma cells; experiment: Proliferation assay, Caco-2 (crystal violet); format: cell-based; settings: 96 h, Caco-2, 4 days, read-out: Inhibition of Caco-2 cell proliferation
Experimental: as §1

[6] = test system: B16F10, mouse melanoma cells; experiment: Proliferation assay, B16F10 (crystal violet); format: cell-based; settings: B16-F10, 96 h, B16F10, 4 days, read-out: Inhibition of B16F10 cell proliferation
Experimental: as §1

T1 sequence (P50750 whole entry): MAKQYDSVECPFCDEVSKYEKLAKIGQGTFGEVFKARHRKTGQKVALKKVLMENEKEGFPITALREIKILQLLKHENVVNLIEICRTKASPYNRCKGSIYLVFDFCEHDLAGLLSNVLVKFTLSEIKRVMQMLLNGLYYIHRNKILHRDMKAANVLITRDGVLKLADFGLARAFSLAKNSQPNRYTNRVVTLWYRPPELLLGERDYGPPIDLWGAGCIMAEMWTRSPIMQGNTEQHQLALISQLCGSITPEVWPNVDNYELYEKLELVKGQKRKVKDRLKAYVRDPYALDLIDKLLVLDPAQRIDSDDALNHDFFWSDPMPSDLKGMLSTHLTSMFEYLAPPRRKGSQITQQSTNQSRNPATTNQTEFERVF
T1 sequence (O60563 whole entry partner): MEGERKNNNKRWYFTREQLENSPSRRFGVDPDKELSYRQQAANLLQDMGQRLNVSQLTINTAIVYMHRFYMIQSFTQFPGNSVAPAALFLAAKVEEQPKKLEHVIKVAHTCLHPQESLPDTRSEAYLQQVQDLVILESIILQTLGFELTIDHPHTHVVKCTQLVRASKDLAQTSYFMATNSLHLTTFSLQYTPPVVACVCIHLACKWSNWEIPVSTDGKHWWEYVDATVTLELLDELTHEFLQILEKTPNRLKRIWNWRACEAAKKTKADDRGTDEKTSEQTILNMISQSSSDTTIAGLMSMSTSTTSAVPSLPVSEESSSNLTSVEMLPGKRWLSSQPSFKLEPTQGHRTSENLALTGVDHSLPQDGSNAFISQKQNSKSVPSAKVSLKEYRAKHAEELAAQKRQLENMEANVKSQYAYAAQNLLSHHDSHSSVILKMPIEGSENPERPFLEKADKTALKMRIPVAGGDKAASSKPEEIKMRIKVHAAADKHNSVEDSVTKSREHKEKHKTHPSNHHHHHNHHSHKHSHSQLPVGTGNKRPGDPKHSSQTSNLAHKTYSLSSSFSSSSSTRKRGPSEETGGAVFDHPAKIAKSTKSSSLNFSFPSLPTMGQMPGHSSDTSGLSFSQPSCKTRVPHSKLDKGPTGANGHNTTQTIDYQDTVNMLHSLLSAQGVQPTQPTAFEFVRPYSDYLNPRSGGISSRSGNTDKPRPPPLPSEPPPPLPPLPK

SMILES | IC50 (CDK9/CycT1) [nM] | Selectivity CDK9 over CDK2: IC50 (CDK2)/IC50 (CDK9) (CDK9/CycT1) | IC50 [1] [nM] | IC50 [2] [nM] | IC50 [3] [nM] | IC50 [4] [nM] | IC50 [5] [nM] | IC50 [6] [nM]
CS(=O)(Cc1ccnc(Nc2cc(-c3ccc(F)c4ccoc34)c(F)cn2)c1)=NC(=O)C(F)(F)F (racemic) [Example 6, (rac)-2,2,2-Trifluoro-N-{[(2-{[5-fluoro-4-(4-fluoro-1-benzofuran-7-yl)pyridin-2-yl]amino}pyridin-4-yl)methyl](methyl)oxido-λ^6-sulfanylidene}acetamide] | 4.9 | 110 | 42 | 52 | 46 | 42 | 58 | 88
Cc1cc(CS(C)(=N)=O)cc(Nc2cc(-c3ccc(F)c4ccoc34)c(F)cn2)n1 (racemic) [Example 7, (rac)-5-Fluoro-4-(4-fluoro-1-benzofuran-7-yl)-N-{6-methyl-4-[(S-methylsulfonimidoyl)-methyl]pyridin-2-yl}pyridin-2-amine] | 2.1 | 19 | 11 | 9.1 | 33 | 14 | 14 | 17
